In patent US20230085307A1, “PYRIDAZINONE COMPOUND AND HERBICIDE” (NISSAN CHEMICAL CORPORATION, priority 2019, published 2023):

Assays:
[1] = tested on: oval-leafed pondweed; experiment: Test Example 1: herbicidal activity, application before weed generation under submerged conditions (Table 16, symbol C); assay type: in vivo, oval-leafed pondweed (Monochoria vaginalis); details: amount of applied herbicide 320 g/ha
Outline: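 Emulsion formulation, water-diluted to set dose, was put onto the flooded surface (4 cm depth, alluvial soil) the same day weeds were sown and 2.5-leaf rice transplanted. After 3 weeks at 25-30 °C under glass, each species was rated 0 (≤5% kill) to 5 (≥90% kill).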

[2] = tested on: Japanese bulrush; experiment: Test Example 2: herbicidal activity, application during weed generation under submerged conditions (Table 17, symbol B); assay type: in vivo, Japanese bulrush (Schoenoplectus juncoides); details: AAH 320 g/ha; application during weed generation, submerged conditions
Outline: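 Alluvial soil in Wagner pots was flooded to 4 cm depth and sown with the three weeds together; pots were kept in a greenhouse at 25° C. to 30° C. At the one to two leaf stage, an emulsion formulation diluted in water to a set rate went onto the water surface; scored three weeks later.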

[3] = tested on: Chinese sprangletop; experiment: Test Example 3: herbicidal effect by foliage application, Wagner pot (Table 18, symbol D); assay type: in vivo, chinese sprangletop (Leptochloa chinensis); details: for herbicidal effect on Chinese sprangletop (D): 320 g/ha
Outline: (§1)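 Plants were sown in alluvial soil held under 0.1–0.5 cm standing water and grown 14 days in a greenhouse at 25–30 °C. An emulsifiable formulation, water-diluted to the set dose, was then sprayed onto the foliage, and effects were scored three weeks later using previously defined criteria.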

[4] = tested on: rice flat sedge; experiment: Test Example 3: herbicidal effect by foliage application, Wagner pot (Table 18, symbol E); assay type: in vivo, rice flat sedge (Cyperus iria); details: for herbicidal effect on rice flat sedge (E): 320 g/ha
Outline: as §1

[5] = tested on: southern crabgrass; experiment: Test Example 4: herbicidal effect by soil treatment (Table 19, symbol F); assay type: in vivo, southern crabgrass (Digitaria ciliaris); details: amount of applied herbicide 320 g/ha
Outline: (§2)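 Step 1: sow seeds in sterilized diluvial soil, cover ~1.5 cm. Step 2: spray diluted emulsion onto soil surface at predetermined rate. Step 3: greenhouse, 25–30° C, three weeks. Step 4: grade effect on each plant by earlier criteria.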

[6] = tested on: green foxtail; experiment: Test Example 4: herbicidal effect by soil treatment (Table 19, symbol G); assay type: in vivo, green foxtail (Setaria viridis); details: amount of applied herbicide 320 g/ha
Outline: as §2

[7] = tested on: wild oat; experiment: Test Example 4: herbicidal effect by soil treatment (Table 19, symbol I); assay type: in vivo, wild oat (Avena fatua); details: amount of applied herbicide 320 g/ha
Outline: as §2

[8] = tested on: blackgrass; experiment: Test Example 4: herbicidal effect by soil treatment (Table 19, symbol J); assay type: in vivo, blackgrass (Alopecurus myosuroides); details: amount of applied herbicide 320 g/ha
Outline: as §2

[9] = tested on: redroot pigweed; experiment: Test Example 4: herbicidal effect by soil treatment (Table 19, symbol N); assay type: in vivo, redroot pigweed (Amaranthus retroflexus); details: amount of applied herbicide 320 g/ha
Outline: as §2

[10] = tested on: southern crabgrass; experiment: Test Example 5: herbicidal effect by foliage application, plastic box (Table 20, symbol F); assay type: in vivo, southern crabgrass (Digitaria ciliaris); details: foliage application, 320 g/ha, three weeks after application
Outline: (§3)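 Foliar spray test: emulsion formulation diluted in water to a set application rate, sprayed onto 14-day-old plants raised in diluvial soil at 25° C to 30° C under glass. Both herbicidal effect and crop effect rated visually three weeks later.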

[11] = tested on: barnyard grass; experiment: Test Example 5: herbicidal effect by foliage application, plastic box (Table 20, symbol H); assay type: in vivo, barnyard grass (Echinochloa crus-galli); details: foliage application, 320 g/ha, three weeks after application
Outline: as §3

[12] = tested on: wild oat; experiment: Test Example 5: herbicidal effect by foliage application, plastic box (Table 20, symbol I); assay type: in vivo, wild oat (Avena fatua); details: foliage application, 320 g/ha, three weeks after application
Outline: as §3

[13] = tested on: blackgrass; experiment: Test Example 5: herbicidal effect by foliage application, plastic box (Table 20, symbol J); assay type: in vivo, blackgrass (Alopecurus myosuroides); details: foliage application, 320 g/ha, three weeks after application
Outline: as §3

[14] = tested on: Italian ryegrass; experiment: Test Example 5: herbicidal effect by foliage application, plastic box (Table 20, symbol K); assay type: in vivo, Italian ryegrass (Lolium multiflorum); details: foliage application, 320 g/ha, three weeks after application
Outline: as §3

[15] = tested on: velvetleaf; experiment: Test Example 5: herbicidal effect by foliage application, plastic box (Table 20, symbol M); assay type: in vivo, velvetleaf (Abutilon theophrasti); details: foliage application, 320 g/ha, three weeks after application
Outline: as §3

[16] = tested on: lambsquarters; experiment: Test Example 5: herbicidal effect by foliage application, plastic box (Table 20, symbol O); assay type: in vivo, lambsquarters (Chenopodium album); details: foliage application, 320 g/ha, three weeks after application
Outline: as §3

[17] = tested on: false cleavers; experiment: Test Example 5: herbicidal effect by foliage application, plastic box (Table 20, symbol Q); assay type: in vivo, false cleavers (Galium spurium); details: foliage application, 320 g/ha, three weeks after application
Outline: as §3

[18] = amount of applied herbicide 320 g/ha

SMILES | Herbicidal effect, C: oval-leafed pondweed [1] | herbicidal effect rating, B: Japanese bulrush [2] | F: southern crabgrass, herbicidal effect grade [10] | H: barnyard grass, herbicidal effect grade [11] | I: wild oat, herbicidal effect grade [12] | J: blackgrass, herbicidal effect grade [13] | K: Italian ryegrass, herbicidal effect grade [14] | M: velvetleaf, herbicidal effect grade [15] | O: lambsquarters, herbicidal effect grade [16] | Q: false cleavers, herbicidal effect grade [17] | herbicidal effect on Chinese sprangletop (D) [3] | herbicidal effect on rice flat sedge (E) [4] | F: southern crabgrass, herbicidal effect grade [5] | I: wild oat, herbicidal effect grade [7] | J: blackgrass, herbicidal effect grade [8] | N: redroot pigweed, herbicidal effect grade [9] | G: green foxtail, herbicidal effect grade [6] | other results
CCCC(=O)Oc1c(C)nn(C)c(=O)c1-c1c(-c2ccc3c(c2)OCCO3)sc2cc(F)ccc12 [3-014] | 5 (Herbicidal rate of 90% or more (almost completely withered)) | 0 (Herbicidal rate of 5% or less (almost no effect)) | 3 (Herbicidal rate of 40% or more and less than 70%) | 3 (Herbicidal rate of 40% or more and less than 70%) | 1 (Herbicidal rate of 5% or more and less than 20%) | 1 (Herbicidal rate of 5% or more and less than 20%) | 1 (Herbicidal rate of 5% or more and less than 20%) | 5 (Herbicidal rate of 90% or more (almost completely withered)) | 5 (Herbicidal rate of 90% or more (almost completely withered)) | 4 (Herbicidal rate of 70% or more and less than 90%) | – | – | – | – | – | – | – | herbicidal effect on D: Chinese sprangletop [3, 18]: 0 (Herbicidal rate of 5% or less (almost no effect)); herbicidal effect on E: rice flat sedge [4, 18]: 4 (Herbicidal rate of 70% or more and less than 90%); herbicidal effect, F: southern crabgrass [5]: 0 (Herbicidal rate of 5% or less (almost no effect)); herbicidal effect, G: green foxtail [6]: 0 (Herbicidal rate of 5% or less (almost no effect)); herbicidal effect, I: wild oat [7]: 0 (Herbicidal rate of 5% or less (almost no effect)); herbicidal effect, J: blackgrass [8]: 0 (Herbicidal rate of 5% or less (almost no effect)); herbicidal effect, N: redroot pigweed [9]: 3 (Herbicidal rate of 40% or more and less than 70%)
CCCC(=O)Oc1c(C)nn(C)c(=O)c1-c1c(-c2ccc(F)cc2OC)sc2cc(OC)ccc12 [3-077] | 5 (Herbicidal rate of 90% or more (almost completely withered)) | 4 (Herbicidal rate of 70% or more and less than 90%) | 0 (Herbicidal rate of 5% or less (almost no effect)) | 0 (Herbicidal rate of 5% or less (almost no effect)) | 4 (Herbicidal rate of 70% or more and less than 90%) | 4 (Herbicidal rate of 70% or more and less than 90%) | 3 (Herbicidal rate of 40% or more and less than 70%) | 4 (Herbicidal rate of 70% or more and less than 90%) | 4 (Herbicidal rate of 70% or more and less than 90%) | 3 (Herbicidal rate of 40% or more and less than 70%) | 1 (Herbicidal rate of 5% or more and less than 20%) | 5 (Herbicidal rate of 90% or more (almost completely withered)) | 0 (Herbicidal rate of 5% or less (almost no effect)) | 2 (Herbicidal rate of 20% or more and less than 40%) | 3 (Herbicidal rate of 40% or more and less than 70%) | 5 (Herbicidal rate of 90% or more (almost completely withered)) | – | –
CCOc1ccc(-c2sc3cc(OC)ccc3c2-c2c(O)c(C)nn(C)c2=O)cc1 [3-072] | 4 (Herbicidal rate of 70% or more and less than 90%) | 2 (Herbicidal rate of 20% or more and less than 40%) | 0 (Herbicidal rate of 5% or less (almost no effect)) | 3 (Herbicidal rate of 40% or more and less than 70%) | 0 (Herbicidal rate of 5% or less (almost no effect)) | 0 (Herbicidal rate of 5% or less (almost no effect)) | 4 (Herbicidal rate of 70% or more and less than 90%) | 3 (Herbicidal rate of 40% or more and less than 70%) | 5 (Herbicidal rate of 90% or more (almost completely withered)) | 5 (Herbicidal rate of 90% or more (almost completely withered)) | 3 (Herbicidal rate of 40% or more and less than 70%) | 4 (Herbicidal rate of 70% or more and less than 90%) | 0 (Herbicidal rate of 5% or less (almost no effect)) | 0 (Herbicidal rate of 5% or less (almost no effect)) | 0 (Herbicidal rate of 5% or less (almost no effect)) | 2 (Herbicidal rate of 20% or more and less than 40%) | 0 (Herbicidal rate of 5% or less (almost no effect)) | –
CCCC(=O)Oc1c(C)nn(C)c(=O)c1-c1c(-c2ccc(OC)cc2)sc2cc(OCC)ccc12 [3-092] | 3 (Herbicidal rate of 40% or more and less than 70%) | 1 (Herbicidal rate of 5% or more and less than 20%) | 0 (Herbicidal rate of 5% or less (almost no effect)) | 0 (Herbicidal rate of 5% or less (almost no effect)) | 0 (Herbicidal rate of 5% or less (almost no effect)) | 0 (Herbicidal rate of 5% or less (almost no effect)) | 0 (Herbicidal rate of 5% or less (almost no effect)) | 5 (Herbicidal rate of 90% or more (almost completely withered)) | 4 (Herbicidal rate of 70% or more and less than 90%) | 4 (Herbicidal rate of 70% or more and less than 90%) | – | 4 (Herbicidal rate of 70% or more and less than 90%) | 3 (Herbicidal rate of 40% or more and less than 70%) | 0 (Herbicidal rate of 5% or less (almost no effect)) | 0 (Herbicidal rate of 5% or less (almost no effect)) | 3 (Herbicidal rate of 40% or more and less than 70%) | 0 (Herbicidal rate of 5% or less (almost no effect)) | –
